Experimental data taken from patent US20220168313A1, “HETEROCYCLIC COMPOUNDS AND USES THEREOF” (Nuvation Bio Inc., priority 2019, published 2022).

test system: A427 cells; assay: Cytotoxicity assay in A427 cell line (resazurin, 72 hr); assay type: cell-based; details: Homo sapiens, A-427; A427 lung epithelial cell line, 72 hr incubation, inhibition of proliferation
Procedure: A427 (HTB-53; ATCC), a lung epithelial cell line, was seeded in medium (MEM, 41090101; Gibco) at a cell count of 1500 cells per 100 μL per well in a 96 well edge plate (167425; ThermoFisher). Cells were allowed to grow at 37° C. for 24 hr in 5% CO2 environment (culture conditions) in a Nuaire incubator (humidified). Serially diluted test compounds (100 μL) within the desired testing concentration ranges were added to the culture plate and the cells further incubated in culture conditions for 72 hr. The experiment was terminated at the designated incubation time by replacing the medium with 100 μL of 1 mM of resazurin (R7017; Sigma) prepared in culture medium, and the plates were further incubated in culture conditions for 4-6 hr. Fluorescence was recorded using a multimodal plate reader (Biotek Synergy Neo) at an excitation wavelength of 535 nm and emission wavelength of 590 nm to obtain relative fluorescence units. Data were analysed as follows: the background fluorescence (blank containing only medium) value was subtracted from each reading and normalized with the vehicle control (DMSO treated cells) to obtain percent survival/proliferation. […] Potency of compounds in other cell lines (such as A549, As-Pc-1, Panc-10.05, MDA-MB-231, A172, U-87MG) may be determined in an analogous manner.

Question: Which IC50 does the source give for `CC(C)N1CCc2ccc(Nc3ncc4c(n3)OCN(c3c(Cl)cccc3Cl)C4=O)cc2C1` [Compound No. 1.43, 3-(2,6-dichlorophenyl)-7-((2-isopropyl-1,2,3,4-tetrahydroisoquinolin-7-yl)amino)-2,3-dihydro-4H-pyrimido[5,4-e][1,3]oxazin-4-one] here?
Answer: The IC50 was 5500 nM.

molecular target: T1, WEE1 kinase enzyme (Homo sapiens, UniProt P30291); assay: WEE1 IC50 determination, LanthaScreen Terbium Labeled TR-FRET kinase assay; assay type: biochemical; details: WEE1 Enzyme 1 nM, ATP 10 μM, fluorescent-PolyGT substrate 200 nM, 1 h
T1 construct: purchased Invitrogen, Life Technologies PR7373A
T1 sequence (P30291 whole entry): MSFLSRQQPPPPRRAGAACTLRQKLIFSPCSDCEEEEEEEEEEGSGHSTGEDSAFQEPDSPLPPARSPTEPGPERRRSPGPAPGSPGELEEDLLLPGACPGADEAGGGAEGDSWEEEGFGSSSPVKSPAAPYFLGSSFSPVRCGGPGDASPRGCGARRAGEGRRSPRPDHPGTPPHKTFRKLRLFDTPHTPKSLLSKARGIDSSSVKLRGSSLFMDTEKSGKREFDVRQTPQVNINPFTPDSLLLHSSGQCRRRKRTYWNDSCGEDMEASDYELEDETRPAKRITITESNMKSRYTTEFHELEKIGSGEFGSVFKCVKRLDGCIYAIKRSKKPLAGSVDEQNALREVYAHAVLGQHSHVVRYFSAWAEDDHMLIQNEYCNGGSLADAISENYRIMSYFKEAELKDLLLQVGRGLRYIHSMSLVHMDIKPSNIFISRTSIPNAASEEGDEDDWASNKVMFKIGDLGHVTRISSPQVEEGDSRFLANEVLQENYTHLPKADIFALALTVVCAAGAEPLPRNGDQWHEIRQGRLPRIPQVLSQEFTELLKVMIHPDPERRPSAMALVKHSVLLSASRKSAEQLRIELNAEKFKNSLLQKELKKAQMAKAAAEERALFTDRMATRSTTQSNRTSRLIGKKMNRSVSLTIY
Procedure: IC50 values of the compounds against WEE1 kinase enzyme were determined by LanthaScreen™ Terbium Labeled TR-FRET assay. Kinase assays were performed in 1× kinase buffer (#PV6135, Invitrogen, Life Technologies, Grand Island, N.Y.) where total reaction volume was 10 μL in low-volume 384-well plates (#4511, Corning). Serially diluted compounds (3-fold) were incubated with WEE1 Enzyme (1 nM) (#PR7373A, Invitrogen, Life Technologies, Grand Island, N.Y.) for 10 min; a mixture of ATP (10 μM) (#A1852, Sigma, St. Louis, Mo.) and fluorescent-PolyGT substrate (200 nM) (#PV3610, Invitrogen, Life Technologies, Grand Island, N.Y.) was added and incubated in dark at room temperature for 1 h. After 1 h, 10 μL stop solution containing terbium labeled antibody (4 nM) (#PV3529, Invitrogen, Life Technologies, Grand Island, N.Y.) and EDTA (#E5134, Sigma, St. Louis, Mo.) (20 mM) in TR-FRET dilution buffer (#PV3574, Invitrogen, Life Technologies, Grand Island, N.Y.) were added. Readings were taken in a Synergy Neo plate reader (BioTek, Winooski, Vt.) at single excitation of 340 nm and dual emission at 495 nm and 520 nm respectively.
The % activity of test samples was calculated as (Sample−Min)*100/(Max−Min). [Max: DMSO control, complete reaction with enzyme & DMSO and Min: No enzyme & DMSO]. Percent inhibition (100-% activity) was fitted to the “four-parameter logistic model” in XLfit for determination of IC50 values.

Question: For `CN(C)CC(=O)N1CCc2cc(Nc3ncc4c(n3)OCN(c3c(Cl)cccc3Cl)C4=O)ccc2C1` [1.37, 3-(2,6-dichlorophenyl)-7-(2-(2-(dimethylamino)acetyl)-1,2,3,4-tetrahydroisoquinolin-6-ylamino)-2H-pyrimido[5,4-e][1,3]oxazin-4 (3H)-one], which IC50 is on record?
Answer: Its IC50 is 145 nM.

Question: With `CN(C)CC(=O)N1CCc2cc(Nc3ncc4c(n3)OCN(c3c(Cl)cccc3Cl)C4=O)ccc2C1(C)C` [1.48, 3-(2,6-dichlorophenyl)-7-((2-(dimethylglycyl)-1,1-dimethyl-1,2,3,4-tetrahydroisoquinolin-6-yl)amino)-2,3-dihydro-4H-pyrimido[5,4-e][1,3]oxazin-4-one] as the compound, how does the IC50 read?
Answer: The IC50 was 125 nM.

Question: How did the IC50 turn out when `CC(C)N1CCc2cc(Nc3ncc4c(n3)OCN(c3c(Cl)cccc3Cl)C4=O)ccc2C1` [Compound No. 1.40, 3-(2,6-dichlorophenyl)-7-((2-isopropyl-1,2,3,4-tetrahydroisoquinolin-6-yl)amino)-2,3-dihydro-4H-pyrimido[5,4-e][1,3]oxazin-4-one] was run?
Answer: The IC50 was 206 nM.

Question: How did the IC50 turn out when `CC(C)N1CCc2ccc(Nc3ncc4c(n3)OCN(c3c(Cl)cccc3Cl)C4=O)cc2C1` [Compound No. 1.43, 3-(2,6-dichlorophenyl)-7-((2-isopropyl-1,2,3,4-tetrahydroisoquinolin-7-yl)amino)-2,3-dihydro-4H-pyrimido[5,4-e][1,3]oxazin-4-one] was run?
Answer: Its IC50 is 21 nM.

Question: `CN(C)CC(=O)N1CCc2ccc(Nc3ncc4c(n3)OCN(c3c(Cl)cccc3Cl)C4=O)cc2C1` [Compound No. 1.44, 3-(2,6-dichlorophenyl)-7-((2-(dimethylglycyl)-1,2,3,4-tetrahydroisoquinolin-7-yl)amino)-2,3-dihydro-4H-pyrimido[5,4-e][1,3]oxazin-4-one] was tested. Which IC50 did it give?
Answer: The IC50 was 225 nM.
